Like-named read-outs stand apart in the source and are kept apart here.
How the values were obtained:
CCHFV/ZsG [1] = assay: microbe, parasite or virus in culture; assay type: cell-based, Crimean-Congo hemorrhagic fever virus
wild-type CCHFV = assay: microbe, parasite or virus in culture; assay type: cell-based, Crimean-Congo hemorrhagic fever virus; conditions: for EC50: Orthonairovirus haemorrhagiae, Huh-7, read-out: EC50 CCHFV
in vitro = conditions: human
rats = conditions: rat, in vivo; cited from earlier work
woodchucks = conditions: in vivo; cited from earlier work
CCHFV/ZsG [2] = assay: microbe, parasite or virus in culture; assay type: cell-based, Crimean-Congo hemorrhagic fever virus; conditions: Orthonairovirus haemorrhagiae, SW13, read-out: EC50 CCHFV/ZsG
CCHFV = conditions: read-out: previously reported EC50; cited from earlier work
CCHF = conditions: in vivo; cited from earlier work
[3] = Orthonairovirus haemorrhagiae, Huh-7, read-out: EC50 CCHFV/ZsG

| Compound | ZsG fluorescence in initial screen (CCHFV/ZsG [1]) | potency relative to T-705 (CCHFV/ZsG [1]) | potency relative to ribavirin (CCHFV/ZsG [1]) | selectivity index (SI) CCHFV/ZsG (CCHFV/ZsG [1]) | EC50 (CCHFV/ZsG [1]; [3]) | CCHFV titer reduction compared to DMSO only-treated control (wild-type CCHFV) | selectivity index (SI) CCHFV (wild-type CCHFV) | virus detection at the highest concentration of compound tested (wild-type CCHFV) | EC50 (wild-type CCHFV) | cytotoxicity, result in words (Huh7 cells) | cytotoxicity, result in words (SW13 cells) | CC50 (in vitro) | viability (in vitro) | adverse clinical effects (rats) | adverse clinical effects (woodchucks) | EC50 (CCHFV/ZsG [1]; read-out: EC50 CCHFV/ZsG) | EC50 (CCHFV/ZsG [2]) | EC50 (CCHFV) | efficacy in mouse model of CCHF (CCHF) |
| --- | --- | --- | --- | --- | --- | --- | --- | --- | --- | --- | --- | --- | --- | --- | --- | --- | --- | --- | --- |
| Nc1ccn([C@@H]2O[C@H](CO)[C@@H](O)[C@H]2F)c(=O)n1 [2′-dFC, 2′-deoxy-2′-fluorocytidine] | < 30 % of control | 17 × | 200 × | 0.061 ± 0.018 (> 820) | 61 nM | approximately 2 logs | 0.031 (> 1613) | no virus detected | 31 nM | no cytotoxicity | no associated cytotoxicity | > 50000 nM | > 80% | no adverse clinical effects | no adverse clinical effects | – | – | – | – |
| COc1c(C)c2c(c(O)c1C/C=C(\C)CCC(=O)OCCN1CCOCC1)C(=O)OC2 [MMF, mycophenolate mofetil] | < 30 % of control | – | – | – | 390 ± 130 nM | – | – | – | – | – | – | – | > 80% | – | – | – | – | – | – |
| COc1c(C)c2c(c(O)c1C/C=C(\C)CCC(=O)O)C(=O)OC2 [Mycophenolic acid, mycophenolic acid] | – | – | – | 0.10 ± 0.01 (18) | 100 nM | – | 0.19 (9) | – | 190 nM | – | – | 1780 ± 250 nM | – | – | – | – | – | – | – |
| NC(=O)c1ncn([C@@H]2O[C@H](CO)[C@@H](O)[C@H]2O)n1 [Ribavirin, ribavirin] | – | – | – | 12.48 ± 2.61 (> 10) | 12500 ± 2600 nM | – | 5.69 (> 26) | no virus detected | 5690 nM | – | – | > 150000 nM | – | – | – | 12500 nM | 5690 ± 710 nM | 11500 nM | – |
| NC(=O)c1nc(F)c[nH]c1=O [T-705, favipiravir] | < 30 % of control | – | – | 1.03 ± 0.16 (> 50) | 1030 nM | approximately 2 logs | 0.88 (> 57) | no virus detected | 880 nM | – | – | > 50000 nM | > 80% | – | – | – | – | 7000 nM | higher efficacy than ribavirin |

Source: paper PMC8191813 (Antiviral research, 2017)
